Experimental data from patent US9474790B2, “Stable, protracted GLP-1/glucagon receptor co-agonists for medical use” (Novo Nordisk A/S, priority 2013, dated 2016).
Numbered stars: 1 amine (or outer) side, 2 acyl side, 3 side chain; on linkers, the order of the positions; unused ones are H or OH. Bridge positions count the residues as written; N and C are the ends. Square brackets hold non-standard residues; d marks the D form. Side chains are listed from the residue outwards. Peptide text beside a SMILES is read from it. I, II: the chains in the order shown. * marks the point of attachment. C18 diacid = O=C(O)CCCCCCCCCCCCCCCCC(=O)*; γGlu = O=C(O)[C@H](CCC(=O)[*:2])N[*:1]; Ac4c = NC1(C(=O)O)CCC1; AEEA = NCCOCCOCC(=O)O; Aib = CC(C)(N)C(=O)O

Biological target: T1, human glucagon receptor (Homo sapiens, UniProt P47871)
T1 construct: expressed in transfected cells; host or cells: BHK cells (parent BHK570, CRE luciferase clone BHK/KZ10-20-48), clone pLJ6'-4-25
Assay: Glucagon receptor binding, 125I-glucagon displacement SPA on isolated membranes
Conditions: displacement of 125I-glucagon from membranes; read-out: IC50 GlucR
Protocol: The purpose of this assay was to test the in vitro receptor binding activity (i.e. affinity) of the glucagon derivatives of the invention. The receptor binding activity is a measure of affinity of a derivative for the human glucagon receptor.
The receptor binding of each compound to the human glucagon receptor was measured in a displacement binding assay. In this type of assay a labelled ligand (in this case 125I-glucagon) is bound to the receptor. Each derivative was added in a series of concentrations to isolated membranes containing the human glucagon receptor and displacement of the labelled ligand is monitored. The receptor binding was reported as the concentration at which half of the labelled ligand is displaced from the receptor, the IC50 value.
In order to test the binding of the derivatives to albumin, the assay may be performed in a very low concentration of serum albumin (max. 0.001% final assay concentration) as well as in the presence of a higher concentration of serum albumin (0.2% final assay concentration). An increase of the IC50 value, in the presence of serum albumin indicates an affinity to serum albumin and represents a method to predict a protracted pharmacokinetic profile of the test substance in animal models.
The following chemicals were used in the assay: DMEM w Glutamax (Gibco 61965-026), Pen/strep (Invitrogen 15140-122), G418 (Invitrogen 10131-027), Versene (Gibco 15040), 1 M Hepes (Gibco 15630), PBS (Invitrogen 14190-094), fetal calf serum (Invitrogen 16140-071), MgCl2 (Merck 1.05832.1000), EDTA (Invitrogen 15575-038), CaCl2 (Sigma, C5080), Tween 20 (Amresco 0850C335), ovalbumin (Sigma A5503), SPA particles (wheat germ agglutinin (WGA) SPA beads, Perkin Elmer RPNQ0001), [125I]-glucagon (produced in-house), OptiPlate™-96 (Packard 6005290).
HME buffer consisted of 25 mM HEPES, 2 mM MgCl2 and 1 mM EDTA, and pH was adjusted to 7.4. Assay buffer consisted of 50 mM HEPES supplemented with 5 mM MgCl2, 1 mM CaCl2, 0.02% Tween 20 and 0.1% Ovalbumin, and pH was adjusted to 7.4.
The cells used in this assay (clone BHK hGCGR A3*25) were BHK cells stable transfected with an expression plasmid containing the cDNA encoding the human glucagon receptor.
The cells were grown at 5% CO2 in DMEM, 10% fetal calf serum, 1% Pen/Strep (Penicillin/Streptomycin) and 1.0 mg/ml of the selection marker G418. To make a membrane preparation the cells were grown to approximately 80% confluence. The cells were washed twice in phosphate-buffered saline and harvested. The cells were pelleted using a brief centrifugation and the cell pellet was kept on ice. Lyse the cells by adding approx. 5 ml HME buffer, mix by pipetting and snap freeze in liquid nitrogen. Thaw quickly and add HME buffer to 10 ml. The cell pellet was homogenised with an ULTRA-THURRAX dispersing instrument for 20-30 sec. The homogenate was centrifuged at 20.000×G, 4° C. for 10 min. The pellet was re-suspended (homogenised) in 1-2 ml HME buffer. The protein concentration was determined. The membranes were aliquoted and snap-frozen in liquid nitrogen and stored at minus 80° C.
1. For the receptor binding assay, 50 μl of the assay buffer was added to each well of an assay plate.
2. Test compounds were serially diluted to give the following concentrations: 8×10EE-7 M, 8×10EE-8 M, 8×10EE-9 M, 8×10EE-10 M, 8×10EE-11 M, 8×10EE-12 M and 8×10EE-13 M. Twenty-five μl were added to appropriate wells in the assay plate.
3. Cell membrane aliquots were thawed and diluted to their working concentration. Fifty μl were added to each well in the assay plate.
4. WGA SPA beads were suspended in assay buffer at 20 mg/ml. The suspension was diluted to 10 mg/ml in assay buffer just prior to addition to the assay plate. Fifty μl were added to each well in the assay plate.
5. The incubation was started by adding 25 μl of 480 pM solution of [125I]-glucagon to each well of the assay plate. A 25 μl aliquot was reserved for measuring total counts/well.
6. The assay plate was incubated for 2 h at 25° C.
7. […]

T1 sequence (P47871 26-477): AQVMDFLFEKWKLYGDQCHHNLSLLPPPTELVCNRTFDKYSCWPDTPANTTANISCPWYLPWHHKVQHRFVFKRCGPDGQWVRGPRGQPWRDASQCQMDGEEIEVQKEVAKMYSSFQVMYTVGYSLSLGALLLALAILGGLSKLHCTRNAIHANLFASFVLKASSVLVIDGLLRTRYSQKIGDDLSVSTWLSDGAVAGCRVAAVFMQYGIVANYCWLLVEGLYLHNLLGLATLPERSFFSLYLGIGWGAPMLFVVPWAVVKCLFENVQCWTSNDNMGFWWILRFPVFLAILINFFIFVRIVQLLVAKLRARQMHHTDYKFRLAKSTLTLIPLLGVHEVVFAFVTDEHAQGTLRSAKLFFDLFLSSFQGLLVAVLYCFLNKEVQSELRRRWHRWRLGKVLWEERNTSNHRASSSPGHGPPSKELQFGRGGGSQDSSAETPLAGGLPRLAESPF

CC(C)C[C@H](NC(=O)[C@H](Cc1ccc(O)cc1)NC(=O)[C@H](CCCCN)NC(=O)[C@H](CO)NC(=O)[C@H](CC(C)C)NC(=O)[C@H](CC(=O)O)NC(=O)[C@H](CO)NC(=O)[C@@H](NC(=O)[C@H](Cc1ccccc1)NC(=O)[C@@H](NC(=O)CNC(=O)[C@H](CCC(N)=O)NC(=O)C1(NC(=O)[C@@H](N)Cc2c[nH]cn2)CCC1)[C@@H](C)O)[C@@H](C)O)C(=O)N[C@@H](CCC(=O)O)C(=O)N[C@@H](CO)C(=O)N[C@@H](CCCCN)C(=O)N[C@@H](CCCNC(=N)N)C(=O)N[C@@H](C)C(=O)N[C@@H](CCCNC(=N)N)C(=O)N[C@@H](CCC(=O)O)C(=O)N[C@@H](Cc1ccccc1)C(=O)N[C@H](C(=O)N[C@@H](CCC(N)=O)C(=O)N[C@@H](Cc1c[nH]c2ccccc12)C(=O)N[C@@H](CC(C)C)C(=O)N[C@@H](CC(C)C)C(=O)N[C@@H](CCCCNC(=O)CNC(=O)[C@H](CO)NC(=O)[C@H](CCC(=O)O)NC(=O)CNC(=O)[C@H](CO)NC(=O)CC[C@H](NC(=O)CC[C@H](NC(=O)CCCCCCCCCCCCCCCCC(=O)O)C(=O)O)C(=O)O)C(=O)N[C@H](C(N)=O)[C@@H](C)O)C(C)C [Example 36, N^ε28-[2-[[(2S)-2-[[(2S)-4-carboxy-2-[[2-[[(2S)-2-[[(4S)-4-carboxy-4-[[(4S)-4-carboxy-4-(17-carboxyheptadecanoylamino)butanoyl]amino]butanoyl]amino]-3-hydroxypropanoyl]amino]acetyl]amino]butanoyl]amino]-3-hydroxypropanoyl]amino]acetyl]-[Acb2,Leu10,Glu15,Lys17, Arg20,Glu21,Leu27,Lys28]-Glucagon amide] (I: H-H[Ac4c]QGTFTSDLSKYLESKRAREFVQWLLKT-NH2 / II: {C18 diacid-γGlu-γGlu}-SGESG; amide I:28-II:C; N-terminus assumed) and CC(C)C[C@H](NC(=O)[C@H](Cc1ccc(O)cc1)NC(=O)[C@H](CCCCN)NC(=O)[C@H](CO)NC(=O)[C@H](CC(C)C)NC(=O)[C@H](CC(=O)O)NC(=O)[C@H](CO)NC(=O)[C@@H](NC(=O)[C@H](Cc1ccccc1)NC(=O)[C@@H](NC(=O)CNC(=O)[C@H](Cc1c[nH]cn1)NC(=O)C1(NC(=O)[C@@H](N)Cc2c[nH]cn2)CCC1)[C@@H](C)O)[C@@H](C)O)C(=O)N[C@@H](CCC(=O)O)C(=O)N[C@@H](CO)C(=O)N[C@@H](CCCNC(=N)N)C(=O)N[C@@H](CCCNC(=N)N)C(=O)N[C@@H](C)C(=O)N[C@@H](CCC(N)=O)C(=O)N[C@@H](CC(=O)O)C(=O)N[C@@H](Cc1ccccc1)C(=O)N[C@H](C(=O)N[C@@H](CCC(N)=O)C(=O)N[C@@H](Cc1c[nH]c2ccccc12)C(=O)N[C@@H](CC(C)C)C(=O)N[C@@H](CC(C)C)C(=O)N[C@@H](CCCCNC(=O)CNC(=O)[C@H](CO)NC(=O)[C@H](CCC(=O)O)NC(=O)CNC(=O)[C@H](CO)NC(=O)CC[C@H](NC(=O)CC[C@H](NC(=O)CCCCCCCCCCCCCCCCC(=O)O)C(=O)O)C(=O)O)C(=O)N[C@H](C(N)=O)[C@@H](C)O)C(C)C [Example 35, N^ε28-[2-[[(2S)-2-[[(2S)-4-carboxy-2-[[2-[[(2S)-2-[[(4S)-4-carboxy-4-[[(4S)-4-carboxy-4-(17-carboxyheptadecanoylamino)butanoyl]amino]butanoyl]amino]-3-hydroxypropanoyl]amino]acetyl]amino]butanoyl]amino]-3-hydroxypropanoyl]amino]acetyl]-[Acb2,His3,Leu10,Glu15, Leu27,Lys28]-Glucagon amide] (I: H-H[Ac4c]HGTFTSDLSKYLESRRAQDFVQWLLKT-NH2 / II: {C18 diacid-γGlu-γGlu}-SGESG; amide I:28-II:C; N-terminus assumed) are within 1.5-fold of each other in IC50: 0.6 nM for the first, 0.7 nM for the second.

Going from CC(C)C[C@H](NC(=O)[C@H](Cc1ccc(O)cc1)NC(=O)[C@H](CCCCN)NC(=O)[C@H](CO)NC(=O)[C@H](CC(C)C)NC(=O)[C@H](CC(=O)O)NC(=O)[C@H](CO)NC(=O)[C@@H](NC(=O)[C@H](Cc1ccccc1)NC(=O)[C@@H](NC(=O)CNC(=O)[C@H](CCC(N)=O)NC(=O)C(C)(C)NC(=O)[C@@H](N)Cc1c[nH]cn1)[C@@H](C)O)[C@@H](C)O)C(=O)N[C@@H](CC(=O)O)C(=O)N[C@@H](C)C(=O)N[C@@H](CCCNC(=N)N)C(=O)N[C@@H](CCCNC(=N)N)C(=O)N[C@@H](C)C(=O)N[C@@H](CCCNC(=N)N)C(=O)N[C@@H](CCC(=O)O)C(=O)N[C@@H](Cc1ccccc1)C(=O)N[C@H](C(=O)N[C@@H](CCC(N)=O)C(=O)N[C@@H](Cc1c[nH]c2ccccc12)C(=O)N[C@@H](CC(C)C)C(=O)N[C@@H](CC(C)C)C(=O)N[C@@H](CC(N)=O)C(=O)N[C@@H](CCCCNC(=O)CC[C@H](NC(=O)CC[C@H](NC(=O)COCCOCCNC(=O)CC[C@H](NC(=O)CCCCCCCCCCCCCCCCC(=O)O)C(=O)O)C(=O)O)C(=O)O)C(N)=O)C(C)C [Example 39, N^ε29-[(4S)-4-carboxy-4-[[(4S)-4-carboxy-4-[[2-[2-[2-[[(4S)-4-carboxy-4-(17-carboxyheptadecanoylamino)butanoyl]amino]ethoxy]ethoxy]acetyl]amino]butanoyl]amino]butanoyl]-[Aib2,Leu10,Ala16,Arg20,Glu21,Leu27,Lys29]-Glucagon amide] (H-H[Aib]QGTFTSDLSKYLDARRAREFVQWLLNK([γGlu-γGlu-AEEA-γGlu-C18 diacid])-NH2; N-terminus assumed) to CC(C)C[C@H](NC(=O)[C@H](Cc1c[nH]c2ccccc12)NC(=O)[C@H](CCC(N)=O)NC(=O)[C@@H](NC(=O)[C@H](Cc1ccccc1)NC(=O)[C@H](CCC(=O)O)NC(=O)[C@H](CCCNC(=N)N)NC(=O)[C@H](C)NC(=O)[C@H](CCCNC(=N)N)NC(=O)[C@H](CCCNC(=N)N)NC(=O)C(C)(C)NC(=O)[C@H](CC(=O)O)NC(=O)[C@H](CC(C)C)NC(=O)[C@H](Cc1ccc(O)cc1)NC(=O)[C@H](CCCCN)NC(=O)[C@H](CO)NC(=O)[C@H](CC(C)C)NC(=O)[C@H](CC(=O)O)NC(=O)[C@H](CO)NC(=O)[C@@H](NC(=O)[C@H](Cc1ccccc1)NC(=O)[C@@H](NC(=O)CNC(=O)[C@H](CCC(N)=O)NC(=O)C(C)(C)NC(=O)[C@@H](N)Cc1c[nH]cn1)[C@@H](C)O)[C@@H](C)O)C(C)C)C(=O)N[C@@H](CC(C)C)C(=O)N[C@@H](CCCCNC(=O)CC[C@H](NC(=O)CC[C@H](NC(=O)COCCOCCNC(=O)COCCOCCNC(=O)CC[C@H](NC(=O)CCCCCCCCCCCCCCCCC(=O)O)C(=O)O)C(=O)O)C(=O)O)C(=O)N[C@H](C(N)=O)[C@@H](C)O [Example 51, N^ε28-[(4S)-4-carboxy-4-[[(4S)-4-carboxy-4-[[2-[2-[2-[[2-[2-[2-[[(4S)-4-carboxy-4-(17-carboxyheptadecanoylamino)butanoyl]amino]ethoxy]ethoxy]acetyl]amino]ethoxy]ethoxy]acetyl]amino]butanoyl]amino]butanoyl]-[Aib2,Leu10,Aib16,Arg20,Glu21,Leu27,Lys28]-Glucagon amide] (H-H[Aib]QGTFTSDLSKYLD[Aib]RRAREFVQWLLK([γGlu-γGlu-AEEA-AEEA-γGlu-C18 diacid])T-NH2; N-terminus assumed), the IC50 falls from 5.6 nM to 1.4 nM (4-fold). The second is the more potent here.
